Reference: patent publication US11109590B2 (priority 2017, dated 2021)
Like-named read-outs stand apart in the source and are kept apart here.

What was measured:
[1] = test system: P. aeruginosa (PA01) in biofilm; assay: Antimicrobial efficacy in relation to bacteria in biofilm (24 hours old); assay type: cell-based; conditions: for Log10 reduction factor: biofilm, starting number > 8 log10 cfu/cm^2
[2] = test system: Legionella pneumophilia (ATCC 33152); assay type: cell-based; conditions: pH 8.0, 0.005% yeast extract

Compound | Log10 reduction factor ([1]; 1.7% solution, 5 min exposure) | Log10 reduction factor ([1]; 1.7% solution, 15 min exposure) | Log10 reduction factor ([1]; 1.7% solution, 30 min exposure) | Log10 reduction factor ([1]; 1.7% solution, 60 min exposure) | antimicrobial efficacy in biofilms (in words) ([1]; 1.7%, compared to 17% H2O2 and 100% PAM) | antimicrobial efficacy in relation to biofilms (in words) ([1]; 17%) | Log10 reduction factor ([1]; 17% aqueous solution, 5 min exposure) | Log10 reduction factor ([1]; 17% aqueous solution, 15 min exposure) | Log10 reduction factor ([1]; 17% aqueous solution, 30 min exposure) | Log10 reduction factor ([1]; 17% aqueous solution, 60 min exposure) | antimicrobial effect in relation to the test organisms in biofilms 24 hours old (in words) ([1]; 17% solution, after just 5 minutes of exposure time) | Log10 reduction factor ([2]; 7.50% aqueous solution, 15 min exposure) | Log10 reduction factor ([2]; 7.50% aqueous solution, 30 min exposure) | Log10 reduction factor ([2]; 7.50% aqueous solution, 60 min exposure) | Log10 reduction factor ([2]; 7.50% aqueous solution, 120 min exposure) | Log10 reduction factor ([2]; aqueous 1% solution, 15 min exposure) | Log10 reduction factor ([2]; aqueous 1% solution, 30 min exposure) | Log10 reduction factor ([2]; aqueous 1% solution, 60 min exposure) | Log10 reduction factor ([2]; aqueous 1% solution, 120 min exposure)
OO [H2O2, hydrogen peroxide] | 0.84 Log10 | 1.62 Log10 | 1.95 Log10 | 2.53 Log10 | significant loss of antimicrobial efficacy | high and substantially equivalent | >8.00 Log10 | >8.00 Log10 | >8.00 Log10 | >8.00 Log10 | high antimicrobial effect | 2.24 Log10 | 3.44 Log10 | 4.25 Log10 | 4.83 Log10 | – | – | – | –
polyoxyethylene (20) sorbitan monooleate [PSb 80] | – | – | – | – | – | – | – | – | – | – | – | – | – | – | – | 0.06 Log10 | 0.09 Log10 | 0.09 Log10 | 0.11 Log10
